According to patent US20100075978A1, “SULFONAMIDE DERIVATIVES AS BRADYKININ ANTAGONISTS” (priority 2006, published 2010):
Where a name gives a salt, the structure may show the parent alone. Read-outs that look alike come from different tables or passages of the source.

Columns and labels:
[1] = target: T1, recombinant human B1 receptors (Homo sapiens, UniProt P46663); experiment: Functional assay: cytosolic calcium ion concentration measured with plate reader fluorimeter in CHO-B1 cells, agonist LysDABK; assay type: cell-based
T1 construct: host or cells: CHO (CHO-B1)
T1 sequence (P46663 1-353): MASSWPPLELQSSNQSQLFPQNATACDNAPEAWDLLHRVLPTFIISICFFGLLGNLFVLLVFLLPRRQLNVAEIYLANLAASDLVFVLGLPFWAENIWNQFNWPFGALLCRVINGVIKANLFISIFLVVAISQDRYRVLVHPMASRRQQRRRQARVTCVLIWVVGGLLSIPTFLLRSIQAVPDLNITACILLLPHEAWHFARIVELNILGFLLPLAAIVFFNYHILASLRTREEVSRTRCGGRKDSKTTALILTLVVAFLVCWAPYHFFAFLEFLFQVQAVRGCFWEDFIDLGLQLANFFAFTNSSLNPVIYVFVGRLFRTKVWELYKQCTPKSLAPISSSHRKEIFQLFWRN
Protocol: Assessment of Antagonist Potency at B1 and B2 Receptors In Vitro by Measurement of Cytosolic Calcium Ion Concentration with a Plate Reader Fluorimeter in Cells Expressing Recombinant Human B1 or B2 Receptors
Chinese hamster ovary (CHO) cells stably expressing recombinant human B1 (CHO-B1, Euroscreen) or B2 (CHO-B2, Perkin-Elmer) receptors were cultured in Dulbecco's Modified Eagle's Medium (DMEM) containing 10% Fetal Calf Serum (FCS), 100 U/ml penicillin, 0.1 mg/ml streptomycin, 0.25 μg/ml amphotericin B, 1% Minimum Essential Medium Eagle (MEM), non essential amino acid solution, 600 μg/ml G418, 1% pyruvate (for the B2 cell line). Cells were kept at 37° C. in a humidified incubator in an atmosphere of 5% CO2/95% air and were passaged 1:4 three times a week. Cells were plated at 1.5-2.5×10^4 cell/well on standard 96-well microplates, measurements of cytosolic calcium ion concentration ([Ca^2+]i) were carried out 1-2 days after cell plating.
Measurements of [Ca^2+]i were carried out on CHO-B1 and CHO-B2 cells stably expressing human B1 and B2 receptors, respectively. Cells were grown in standard 96-well microplates and before the measurement were loaded with a fluorescent Ca^2+-sensitive dye, fluo-4/AM (2 μM): after removing the culture medium the dye was added to the cells (dissolved in assay buffer: 145 mM NaCl, 5 mM KCl, 2 mM MgCl2, 2 mM CaCl2, 10 mM HEPES, 20 mM D-glucose, 2 mM probenecid, 100 μl/well) and cells were incubated at 37° C. in a humidified incubator in an atmosphere of 5% CO2/95% air for 40-120 min. To stop dye loading cells were washed twice with assay buffer. After washing, various concentrations of the test compounds (diluted in extracellular medium from a DMSO stock solution, final DMSO concentration was <0.1%) or buffer were added to each well depending on the experimental setup. After incubation at 37° C. for 20-25 min. baseline and agonist-evoked changes of [Ca^2+]i were measured column by column with a plate reader fluorimeter (Fluoroskan Ascent, Labsystems). Excitation and detection of emission was carried out from the bottom of the plate. Filters used for Fluo-4: excitation filter—485 nm, emission filter—538 nm. The whole measurement process was performed at 37° C. and was controlled by custom software. Inhibitory potency of the test compounds was assessed by measuring the reduction in the agonist-evoked [Ca^2]i-elevation in the presence of different concentrations of the compounds. The agonists were LysDABK for CHO-B1, and bradykinin for CHO-B2 cells. Agonists were applied at an EC80 concentration, the EC80-values were derived from daily determined dose-response curves. Fluorescence data were expressed as ΔF/F (fluorescence change normalized to baseline). All treatments on a single plate were measured in multiple wells. Data from all wells with the same treatment were averaged and the average values were used for analysis. Inhibitory potency of a compound at a single concentration point was expressed as percent inhibition of the control agonist response. Sigmoidal concentration-inhibition curves were fitted to the data (derived from at least three independent experiments) and IC50-values were determined as the concentration that produces half of the maximal inhibition caused by the compound.

[2] = target: T2, human recombinant bradykinin B1 receptor (Homo sapiens, UniProt P46663); experiment: Human recombinant bradykinin B1 receptor binding
T2 construct: purchased Euroscreen ES-091; host or cells: CHO cells
T2 sequence (P46663 1-353): T1 sequence (P46663 1-353)
Protocol: 1. Human Recombinant Bradykinin B1 Receptor Binding
Binding assays were carried out on human recombinant bradykinin) receptors (expressed in CHO cells) according to the Euroscreen Technical Data Sheet (Cat.No.:ES-091). 20 μg protein/tube was incubated with [3,4-prolyl-3,4-^3H(N)]-[Des-Arg^10] Kallidin as radioligand. Non specific binding was determined in the presence of 10 μM Lys-des-Arg^9-Bradykinin. The final incubation volume was 250 μl. Samples were incubated for 15 min. at 25° C. then were rapidly vacuum filtered through GF/B filters presoaked for at least 1 h in 0.5% PEI. Radioactivity was determined by liquid scintillation spectroscopy.

[3] = CHO-B1 cells, LysDABK at EC80, [Ca2+]i, read-out: B1 func.
[4] = radioligand [3H]-[Des-Arg10] Kallidin, CHO cell membranes, read-out: B1 binding
[5] = reference compounds, functional test, read-out: IC50
[6] = reference compounds, binding test, read-out: Ki

IC50 [1, 3] [nM]	Ki [2, 4] [nM]	Structure (SMILES)	IC50 [1, 5] [nM]	Ki [2, 6] [nM]
20 to 100	20 to 100	O=C(NCCCC1CCNCC1)c1ccc(S(=O)(=O)Nc2ccccc2Oc2ccc(Br)cc2Cl)cc1 [Example 30, 4-[2-(4-Bromo-2-chloro-phenoxy)-phenylsulfamoyl]-N-(3-piperidin-4-yl-propyl)-benzamide hydrochloride]	–	–
20 to 100	20 to 100	O=C(NCCNC(=O)C1CCNCC1)c1ccc(S(=O)(=O)Nc2ccccc2Oc2ccc(Cl)cc2Cl)cc1 [Example 29, Piperidine-4-carboxylic acid (2-{4-[2-(2,4-dichloro-phenoxy)-phenylsulfamoyl]-benzoylamino}-ethyl)-amide hydrochloride]	–	–
< 20	< 20	CN1CCC(N2CCC(CCNC(=O)c3ccc(S(=O)(=O)Nc4ccccc4Oc4ccc(Cl)cc4Cl)cc3)CC2)CC1 [Example 24, 4-[2-(2,4-Dichloro-phenoxy)-phenylsulfamoyl]-N-[2-(1-methyl-[1,4′]bipiperidinyl-4-yl)-ethyl]-benzamide]	–	–
< 20	< 20	O=C(NCCc1ccc(C2=NCCN2)cc1)c1ccc(S(=O)(=O)Nc2ccccc2Oc2ccc(Br)cc2)cc1 [Example 7, 4-[2-(4-Bromo-phenoxy)-phenylsulfamoyl]-N-{2-[4-(4,5-dihydro-4H-imidazol-2-yl)-phenyl]-ethyl}-benzamide]	–	–
20 to 100	20 to 100	O=C(N[C@H]1CC[C@H](CCN2CCCC2)CC1)c1ccc(S(=O)(=O)Nc2ccccc2Oc2ccc(F)cc2Cl)cc1 [Example 121, trans-4-[2-(2-Chloro-4-fluoro-phenoxy)-phenylsulfamoyl]-N-[4-(2-pyrrolidin-1-yl-ethyl)-cyclohexyl]-benzamide]	–	–
< 20	< 20	CC(CNC(=O)c1ccc(S(=O)(=O)Nc2ccccc2Oc2ccc(Cl)cc2Cl)cc1)N1CCN(c2ccncc2)CC1 (stereo not shown) [Example 28, 4-[2-(2,4-Dichloro-phenoxy)-phenylsulfamoyl]-N-{2-[4-pyridin-4-yl-piperazin-1-yl)-propyl]-benzamide]	–	–
< 20	< 20	O=C(NCCCN1CCC(N2CCCCC2)CC1)c1ccc(S(=O)(=O)Nc2ccccc2Oc2ccc(Cl)c(Cl)c2)cc1 [Example 5, N-(3-[1,4′]Bipiperidinyl-1′-yl-propyl)-4-[2-(3,4-dichloro-phenoxy)-phenylsulfamoyl]-benzamide]	–	–
20 to 100	< 20	COc1cc(Cl)ccc1Oc1ccccc1NS(=O)(=O)c1ccc(C(=O)NCCCN2CCC(N3CCCCC3)CC2)cc1 [Example 132, N-(3-[1,4′]Bipiperidinyl-1′-yl-propyl)-4-[2-(4-chloro-2-methoxy-phenoxy)-phenylsulfamoyl]-benzamide]	–	–
< 20	< 20	O=C(NCCCN1CCN(c2ccncc2)CC1)c1ccc(S(=O)(=O)Nc2cc(F)ccc2Oc2ccc(Br)cc2)cc1 [Example 105, 4-[2-(4-Bromo-phenoxy)-5-fluoro-phenylsulfamoyl]-N-[3-(4-pyridin-4-yl-piperazin-1-yl)-propyl]-benzamide]	–	–
< 20	< 20	O=C(NCCCN1CCC(N2CCCCC2)CC1)c1ccc(S(=O)(=O)Nc2ccccc2Oc2ccc(Cl)cc2Cl)cc1 [Example 3, N-(3-[1,4′]Bipiperidinyl-1′-yl-propyl)-4-[2-(2,4-dichloro-phenoxy)-phenylsulfamoyl]-benzamide]	–	–

Continued, molecule first:

Structure (SMILES)	IC50 [1, 3] [nM]	Ki [2, 4] [nM]	IC50 [1, 5] [nM]	Ki [2, 6] [nM]
O=C(Nc1ccc(N2CCC(N3CCCCC3)CC2)cc1)c1ccc(S(=O)(=O)Nc2ccccc2Oc2ccc(Cl)cc2Cl)cc1 [Example 8, N-(4-[1,4′]Bipiperidinyl-1′-yl-phenyl)-4-[2-(2,4-dichloro-phenoxy)-phenylsulfamoyl]-benzamide]	20 to 100	< 20	–	–
O=C(NCCCN1CCN(c2ccncc2)CC1)c1ccc(S(=O)(=O)Nc2ccccc2Oc2ccc(Br)cc2)cc1 [Example 114, 4-[2-(4-Bromo-phenoxy)-phenylsulfamoyl]-N-[3-(4-pyridin-4-yl-piperazin-1-yl)-propyl]-benzamide]	< 20	< 20	–	–
O=C(N[C@H]1CC[C@H](CCN2CCCC2)CC1)c1ccc(S(=O)(=O)Nc2ccccc2Oc2ccc(Cl)c(Cl)c2)cc1 [Example 64, trans-4-[2-(3,4-Dichloro-phenoxy)-phenylsulfamoyl]-N-[4-(2-pyrrolidin-1-yl-ethyl)-cyclohexyl]-benzamide]	20 to 100	20 to 100	–	–
O=C(N[C@H]1CC[C@H](CCN2CCCC2)CC1)c1ccc(S(=O)(=O)Nc2ccccc2Oc2ccc(Cl)cc2Cl)cc1 [Example 9, trans-4-[2-(2,4-Dichloro-phenoxy)-phenylsulfamoyl]-N-[4-(2-pyrrolidin-1-ylethyl)-cyclohexyl]-benzamide]	20 to 100	< 20	–	–
CN1CCN(C(=O)C2CCN(S(=O)(=O)c3ccc(NCC(c4ccccc4)c4ccccc4)c(C(=O)N4CCOCC4)c3)CC2)CC1 [NVP-SAA164, 4-{2-[(2,2-diphenyl-ethyl)-amino]-5-{4-[4-[(4-methyl-1-piperazinyl)-carbonyl]-1-piperidinyl]-sulfonyl}-benzoyl}-morfoline, reference compound]	–	–	33	8
O=C(NCCCCC1CCNCC1)c1ccc(S(=O)(=O)Nc2ccccc2Oc2ccc(Br)cc2)cc1 [Example 101, 4-[2-(4-Bromo-phenoxy)-phenylsulfamoyl]-N-(4-piperidin-4-yl-butyl)-benzamide hydrochloride]	20 to 100	20 to 100	–	–
O=C(NCCCN1CCC(N2CCCCC2)CC1)c1ccc(S(=O)(=O)Nc2ccccc2Oc2ccc(F)cc2Cl)cc1 [Example 116, N-(3-[1,4′]Bipiperidinyl-1′-yl-propyl)-4-[2-(2-chloro-4-fluoro-phenoxy)-phenylsulfamoyl]-benzamide]	< 20	< 20	–	–
O=C(NCCC(=O)N1CCC(N2CCCCC2)CC1)c1ccc(S(=O)(=O)Nc2ccccc2Oc2ccc(Cl)cc2Cl)cc1 [Example 62, N-(3-[1,4′]Bipiperidinyl-1′-yl-3-oxo-propyl)-4-[2-(2,4-dichloro-phenoxy)-phenylsulfamoyl]-benzamide trifluoroacetate]	< 20	< 20	–	–
CCCN1C(=O)[C@H](NC(=O)Nc2ccc(N3CCC(N4CCCCC4)CC3)cc2)N=C(c2ccc(C)cc2)c2ccccc21 [compound 3, N-[4-(,4′-bipiperidin)-1′-ylphenyl]-N′-[(3R)-2,3-dihydro-5-(4-methyl-phenyl)-2-oxo-1-propyl-1H-1,4-benzodiazepin-3-yl]-urea, reference compound]	–	–	64.5	13.4
O=C(NCCCCC1CCNCC1)c1ccc(S(=O)(=O)Nc2ccccc2Oc2ccc(Br)cc2Cl)cc1 [Example 167, 4-[2-(4-Bromo-2-chloro-phenoxy)-phenylsulfamoyl]-N-(4-piperidin-4-yl-butyl)-benzamide hydrochloride]	20 to 100	20 to 100	–	–
